Assays:
[1] = target: Human sodium/glucose co-transporter type 1 (SGLT1) (Homo sapiens (Human), UniProt P13866); assay: In vitro human SGLT1 inhibition assay (14C-AMG uptake); format: cell-based; set-up: key to SGLT1 (human SGLT1 IC50): ***: a value less than 0.01 μM; **: a value less than 0.1 μM; *: a value less than 1 μM; —: a value not measured or exceeding μM; details: HEK293 cells expressing human HA-SGLT1, 14C-AMG uptake
Method: Human sodium/glucose co-transporter type 1 (SGLT1; accession number NP_000334; GI: 4507031) was cloned into pIRESpuro2 vector for mammalian expression (construct: HA-SGLT1-pIRESpuro2).
HEK293 cells were transfected with the human HA-SGLT1-pIRESpuro2 vector and the bulk stable cell line was selected in presence of 0.5 μg/mL of puromycin. Human HA-SGLT1 cells were maintained in DMEM media containing 10% FBS, 1% GPS and 0.5 μg/mL of puromycin.
The HEK293 cells expressing the human HA-SGLT1 were seeded in 384 well plates (30,000 cells/well) in DMEM media containing 10% FBS, 1% GPS and 0.5 μg/mL of puromycin, then incubated overnight at 37 C, 5% CO2. Cells were then washed with uptake buffer (140 mM NaCl, 2 mM KCl, 1 mM CaCl2, 1 mM MgCl2, 10 mM HEPES, 5 mM Tris, 1 mg/mL bovine serum albumin (BSA), pH 7.3). Twenty microliters of uptake buffer with or without testing compounds were added to the cells. Then, 20 microliters of uptake buffer containing ^14C-AMG (100 nCi) were also added to cells. The cell plates were incubated at 37° C., 5% CO2 for 1-2 hours. After washing the cells with uptake buffer, scintillation fluid was added (40 microliters/well) and ^14C-AMG uptake was measured by counting radioactivity using a scintillation coulter (TopCoulter NXT; Packard Instruments).

[2] = target: Human sodium/glucose co-transporter type 2 (SGLT2) (Homo sapiens (Human), UniProt P31639); assay: In vitro human SGLT2 inhibition assay (14C-AMG uptake); format: cell-based; details: HEK293 cells expressing human HA-SGLT2, 14C-AMG uptake
Sequence of Human sodium/glucose co-transporter type 2 (SGLT2) (P31639 whole entry): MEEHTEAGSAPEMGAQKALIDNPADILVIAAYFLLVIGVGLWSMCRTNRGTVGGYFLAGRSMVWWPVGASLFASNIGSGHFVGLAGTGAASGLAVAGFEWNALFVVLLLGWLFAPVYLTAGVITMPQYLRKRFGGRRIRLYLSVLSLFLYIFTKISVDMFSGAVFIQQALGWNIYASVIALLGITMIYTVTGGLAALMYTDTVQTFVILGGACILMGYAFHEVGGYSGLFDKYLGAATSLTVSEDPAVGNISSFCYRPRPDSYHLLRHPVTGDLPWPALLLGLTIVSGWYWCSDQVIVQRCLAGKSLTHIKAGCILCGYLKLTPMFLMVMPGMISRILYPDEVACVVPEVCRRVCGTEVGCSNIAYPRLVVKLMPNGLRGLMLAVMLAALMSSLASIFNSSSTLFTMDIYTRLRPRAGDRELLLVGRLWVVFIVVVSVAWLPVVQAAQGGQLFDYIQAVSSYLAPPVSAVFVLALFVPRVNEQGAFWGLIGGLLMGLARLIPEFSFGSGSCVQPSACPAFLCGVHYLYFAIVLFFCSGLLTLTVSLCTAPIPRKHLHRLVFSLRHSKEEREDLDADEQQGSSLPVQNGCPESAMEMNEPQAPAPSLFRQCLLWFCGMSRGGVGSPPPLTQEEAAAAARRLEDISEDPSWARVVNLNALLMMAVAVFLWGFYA
Method: Human sodium/glucose co-transporter type 2 (SGLT2; accession number P31639; GI:400337) was cloned into pIRESpuro2 vector for mammalian expression (construct: HA-SGLT2-pIRESpuro2).
HEK293 cells were transfected with the human HA-SGLT2-pIRESpuro2 vector and the bulk stable cell line was selected in presence of 0.5 μg/mL of puromycin. Human HA-SGLT2 cells were maintained in DMEM media containing 10% FBS, 1% GPS and 0.5 μg/mL of puromycin.
The HEK293 cells expressing the human HA-SGLT2 were seeded in 384 well plates (30,000 cells/well) in DMEM media containing 10% FBS, 1% GPS and 0.5 μg/mL of puromycin, then incubated overnight at 37 C, 5% CO2. Cells were then washed with uptake buffer (140 mM NaCl, 2 mM KCl, 1 mM CaCl2, 1 mM MgCl2, 10 mM HEPES, 5 mM Tris, 1 mg/mL bovine serum albumin (BSA), pH 7.3). Twenty microliters of uptake buffer with or without testing compounds were added to the cells. Then, 20 microliters of uptake buffer containing ^14C-AMG (100 nCi) were added to the cells. The cell plates were incubated at 37° C., 5% CO2 for 1-2 hours. After washing the cells with uptake buffer, scintillation fluid was added (40 microliters/well) and ^14C-AMG uptake was measured by counting radioactivity using a scintillation coulter (TopCoulter NXT; Packard Instruments).

Sequence of Human sodium/glucose co-transporter type 1 (SGLT1) (P13866 whole entry): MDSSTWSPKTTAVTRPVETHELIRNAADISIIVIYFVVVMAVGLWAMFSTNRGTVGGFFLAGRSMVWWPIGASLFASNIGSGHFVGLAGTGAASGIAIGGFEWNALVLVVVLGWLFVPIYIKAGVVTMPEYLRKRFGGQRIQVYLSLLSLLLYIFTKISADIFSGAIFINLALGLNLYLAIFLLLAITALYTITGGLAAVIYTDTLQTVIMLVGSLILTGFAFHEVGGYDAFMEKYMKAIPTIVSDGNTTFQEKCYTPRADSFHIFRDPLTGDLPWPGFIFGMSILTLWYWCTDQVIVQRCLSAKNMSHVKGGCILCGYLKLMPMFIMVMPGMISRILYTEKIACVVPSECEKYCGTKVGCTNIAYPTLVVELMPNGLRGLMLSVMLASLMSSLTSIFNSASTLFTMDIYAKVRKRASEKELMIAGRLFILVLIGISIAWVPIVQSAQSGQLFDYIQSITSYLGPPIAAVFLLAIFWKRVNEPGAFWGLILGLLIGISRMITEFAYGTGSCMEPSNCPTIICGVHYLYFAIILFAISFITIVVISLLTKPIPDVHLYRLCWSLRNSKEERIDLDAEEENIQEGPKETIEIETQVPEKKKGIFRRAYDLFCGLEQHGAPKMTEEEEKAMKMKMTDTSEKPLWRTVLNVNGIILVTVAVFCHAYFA

SMILES	IC50 [1] [µM]	IC50 [2] [µM]	SGLT1 (human SGLT1 IC50) [1]
CS[C@H]1O[C@@H](c2ccc(C)c(Cc3ccc(CCCC(=O)NC(C)(C)C(=O)NC4CCN(C)CC4)cc3)c2)[C@H](O)[C@@H](O)[C@@H]1O [N-(2-methyl-1-((1-methylpiperidin-4-yl)amino)-1-oxopropan-2-yl)-4-(4-(2-methyl-5-((2S,3R,4R,5S,6R)-3,4,5-trihydroxy-6-(methylthio)tetrahydro-2H-pyran-2-yl)benzyl)phenyl)butanamide]	< 0.01	< 0.01	
CCN(CC)CCCCc1ccc(Cc2cc([C@@H]3O[C@H](SC)[C@@H](O)[C@H](O)[C@H]3O)ccc2C)cc1 [(2S,3R,4R,5S,6R)-2-(3-(4-(4-(diethylamino)butyl)benzyl)-4-methylphenyl)-6-(methylthio)tetrahydro-2H-pyran-3,4,5-triol]	< 0.01	< 0.01	
CS[C@H]1O[C@@H](c2ccc(Cl)c(Cc3ccc(OCC(=O)NC(CO)(CO)CO)cc3)c2)[C@H](O)[C@@H](O)[C@@H]1O [2-(4-(2-chloro-5-((2S,3R,4R,5S,6R)-3,4,5-trihydroxy-6-(methylthio)tetrahydro-2H-pyran-2-yl)benzyl)phenoxy)-N-(1,3-dihydroxy-2-(hydroxymethyl)propan-2-yl)acetamide]	< 0.1	< 0.01	
CS[C@H]1O[C@@H](c2ccc(C)c(Cc3ccc(/C=C/CCC(=O)NC(CO)(CO)CO)cc3)c2)[C@H](O)[C@@H](O)[C@@H]1O [(E)-N-(1,3-dihydroxy-2-(hydroxymethyl)propan-2-yl)-5-(4-(2-methyl-5-((2S,3R,4R,5S,6R)-3,4,5-trihydroxy-6-(methylthio)tetrahydro-2H-pyran-2-yl)benzyl)phenyl)pent-4-enamide]	< 0.01	< 0.01	
CS[C@H]1O[C@@H](c2ccc(C)c(Cc3ccc(CCCC(=O)O)cc3)c2)[C@H](O)[C@@H](O)[C@@H]1O [4-(4-(2-methyl-5-((2S,3R,4R,5S,6R)-3,4,5-trihydroxy-6-(methylthio)tetrahydro-2H-pyran-2-yl)benzyl)phenyl)butanoic acid]	< 0.1	< 0.01	
CS[C@H]1O[C@@H](c2ccc(Cl)c(Cc3ccc(OCCCC(=O)NC(C)(C)C(N)=O)cc3)c2)[C@H](O)[C@@H](O)[C@@H]1O [N-(1-amino-2-methyl-1-oxopropan-2-yl)-4-(4-(2-chloro-5-((2S,3R,4R,5S,6R)-3,4,5-trihydroxy-6-(methylthio)tetrahydro-2H-pyran-2-yl)benzyl)phenoxy)butanamide]	< 0.01	< 0.01	
CS[C@H]1O[C@@H](c2ccc(C)c(Cc3ccc(CCCCC(=O)NC(C)(C)C(N)=O)cc3)c2)[C@H](O)[C@@H](O)[C@@H]1O [N-(1-amino-2-methyl-1-oxopropan-2-yl)-5-(4-(2-methyl-5-((2S,3R,4R,5S,6R)-3,4,5-trihydroxy-6-(methylthio)tetrahydro-2H-pyran-2-yl)benzyl)phenyl)pentanamide]	< 0.01	< 0.01	
CCN(CC)C(=O)CCCOc1ccc(Cc2cc([C@@H]3O[C@H](SC)[C@@H](O)[C@H](O)[C@H]3O)ccc2Cl)cc1 [4-(4-(2-chloro-5-((2S,3R,4R,5S,6R)-3,4,5-trihydroxy-6-(methylthio)tetrahydro-2H-pyran-2-yl)benzyl)phenoxy)-N,N-diethylbutanamide]	< 0.1	< 0.01	
CS[C@H]1O[C@@H](c2ccc(C)c(Cc3ccc(OCCCC(=O)NC(C)(C)C(=O)N4CCN(C)CC4)cc3)c2)[C@H](O)[C@@H](O)[C@@H]1O [N-(2-methyl-1-(4-methylpiperazin-1-yl)-1-oxopropan-2-yl)-4-(4-(2-methyl-5-((2S,3R,4R,5S,6R)-3,4,5-trihydroxy-6-(methylthio)tetrahydro-2H-pyran-2-yl)benzyl)phenoxy)butanamide]	< 0.01	< 0.01	
CS[C@H]1O[C@@H](c2ccc(Cl)c(Cc3ccc(OCCCNC(=N)N)cc3)c2)[C@H](O)[C@@H](O)[C@@H]1O [1-(3-(4-(2-chloro-5-((2S,3R,4R,5S,6R)-3,4,5-trihydroxy-6-(methylthio)tetrahydro-2H-pyran-2-yl)benzyl)phenoxy)propyl)guanidine]	< 0.01	< 0.01	
CS[C@H]1O[C@@H](c2ccc(C)c(Cc3ccc(CCCCNC(=N)N)cc3)c2)[C@H](O)[C@@H](O)[C@@H]1O [1-(4-(4-(2-methyl-5-((2S,3R,4R,5S,6R)-3,4,5-trihydroxy-6-(methylthio)tetrahydro-2H-pyran-2-yl)benzyl)phenyl)butyl)guanidine]	< 0.01	< 0.01	
CS[C@H]1OC(c2ccc(C)c(Cc3ccc(OCCCNC4(C(N)=O)CCCC4)cc3)c2)[C@H](O)[C@@H](O)[C@@H]1O (stereo partly drawn) [1-((3-(4-(2-methyl-5-((3R,4R,5S,6R)-3,4,5-trihydroxy-6-(methylthio)tetrahydro-2H-pyran-2-yl)benzyl)phenoxy)propyl)amino)cyclopentanecarboxamide]	< 0.01	< 0.01	
CS[C@H]1O[C@@H](c2ccc(C)c(Cc3ccc(CCCCNC(CO)(CO)CO)cc3)c2)[C@H](O)[C@@H](O)[C@@H]1O [(2S,3R,4R,5S,6R)-2-(3-(4-(4-((1,3-dihydroxy-2-(hydroxymethyl)propan-2-yl)amino)butyl)benzyl)-4-methylphenyl)-6-(methylthio)tetrahydro-2H-pyran-3,4,5-triol]	< 0.01	< 0.01	
COCCOCCOc1ccc(Cc2cc([C@@H]3O[C@H](SC)[C@@H](O)[C@H](O)[C@H]3O)ccc2C)cc1 [(2S,3R,4R,5S,6R)-2-(3-(4-(2-(2-methoxyethoxy)ethoxy)benzyl)-4-methylphenyl)-6-(methylthio)tetrahydro-2H-pyran-3,4,5-triol]	< 0.01	< 0.01	
CS[C@H]1OC(c2ccc(C)c(Cc3ccc(OCCNC(=O)N4CCN(C)CC4)cc3)c2)[C@H](O)[C@@H](O)[C@@H]1O (stereo partly drawn) [4-methyl-N-(2-(4-(2-methyl-5-((3R,4R,5S,6R)-3,4,5-trihydroxy-6-(methylthio)tetrahydro-2H-pyran-2-yl)benzyl)phenoxy)ethyl)piperazine-1-carboxamide]	< 0.01	< 0.01	
CS[C@H]1O[C@@H](c2ccc(C)c(Cc3ccc(OCC(=O)O)cc3)c2)[C@H](O)[C@@H](O)[C@@H]1O [2-(4-(2-methyl-5-((2S,3R,4R,5S,6R)-3,4,5-trihydroxy-6-(methylthio)tetrahydro-2H-pyran-2-yl)benzyl)phenoxy)acetic acid]		< 0.1	—
CS[C@H]1O[C@@H](c2ccc(Cl)c(Cc3ccc(OCCCC(=O)N(C)C(C)(C)CO)cc3)c2)[C@H](O)[C@@H](O)[C@@H]1O [4-(4-(2-chloro-5-((2S,3R,4R,5S,6R)-3,4,5-trihydroxy-6-(methylthio)tetrahydro-2H-pyran-2-yl)benzyl)phenoxy)-N-(1-hydroxy-2-methylpropan-2-yl)-N-methylbutanamide]	< 0.1	< 0.01	
CS[C@H]1O[C@@H](c2ccc(C)c(Cc3ccc(OCCCNCC(C)(C)CN(C)C)cc3)c2)[C@H](O)[C@@H](O)[C@@H]1O [(2S,3R,4R,5S,6R)-2-(3-(4-(3-((3-(dimethylamino)-2,2-dimethylpropyl)amino)propoxy)benzyl)-4-methylphenyl)-6-(methylthio)tetrahydro-2H-pyran-3,4,5-triol]	< 0.01	< 0.01	
CS[C@H]1O[C@@H](c2ccc(C)c(Cc3ccc(OCCNC(=O)NC(C)(C)CO)cc3)c2)[C@H](O)[C@@H](O)[C@@H]1O [1-(1-hydroxy-2-methylpropan-2-yl)-3-(2-(4-(2-methyl-5-((2S,3R,4R,5S,6R)-3,4,5-trihydroxy-6-(methylthio)tetrahydro-2H-pyran-2-yl)benzyl)phenoxy)ethyl)urea]	< 0.1		
